According to the NIST ThermoML archive (doi:10.1016/j.jct.2012.03.029):
Numbers after ± are expanded uncertainties.

Test: mn = molality of the nth substance listed, in mol/kg
Conditions: 101 kPa, Liquid, m1 = 0.01; for speed of sound: Sing-around technique in a fixed-path interferometer; for mass density: Vibrating tube method

OC[C@H]1O[C@@H]2O[C@H]3[C@H](O)[C@@H](O)[C@@H](O[C@H]4[C@H](O)[C@@H](O)[C@@H](O[C@H]5[C@H](O)[C@@H](O)[C@@H](O[C@H]6[C@H](O)[C@@H](O)[C@@H](O[C@H]7[C@H](O)[C@@H](O)[C@@H](O[C@H]8[C@H](O)[C@@H](O)[C@@H](O[C@H]1[C@H](O)[C@H]2O)O[C@@H]8CO)O[C@@H]7CO)O[C@@H]6CO)O[C@@H]5CO)O[C@@H]4CO)O[C@@H]3CO [β-cyclodextrin] + O
Conditions | mass density [kg/m3] | speed of sound [m/s]
293.15 K | 1001.93 ± 2 | 1484.4 ± 1.2
298.15 K | 1000.75 ± 2 | 1498.5 ± 0.91
303.15 K | 999.217 ± 2 | 1510.9 ± 0.88
308.15 K | 997.709 ± 2 | 1521.5 ± 1.2
